Where “and” joins values, the source holds several entries; their conditions need not be identical. Equal entries are not always repeated. Toxic doses and inconclusive results are not listed.

The subject of this assay is BDF1 mice, P388 leukemia ip, median survival T/C. Kind of assay: NCI In Vivo Anticancer Drug Screen. Data for tumor model P388 Leukemia (intraperitoneal) in B6D2F1 (BDF1) mice. The conditions noted are these: endpoint: median survival time, higher = longer survival. An outline of the steps:
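Read-out is survival of treated animals expressed relative to the vehicle group, as a T/C ratio.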

The mark [1] stands for this setting: dose: 12.5 mg/kg/injection, schedule: Q04DX003 (ip), vehicle: Klucel (hydroxypropylcellulose) (HPC).
[2] abbreviates: dose: 25.0 mg/kg/injection, schedule: Q04DX003 (ip), vehicle: Klucel (hydroxypropylcellulose) (HPC).
Setting [3] is: dose: 50.0 mg/kg/injection, schedule: Q04DX003 (ip), vehicle: Klucel (hydroxypropylcellulose) (HPC).
Setting [4] is: dose: 100.0 mg/kg/injection, schedule: Q04DX003 (ip), vehicle: Klucel (hydroxypropylcellulose) (HPC).
[5] abbreviates: dose: 200.0 mg/kg/injection, schedule: Q04DX003 (ip), vehicle: Klucel (hydroxypropylcellulose) (HPC).
Setting [6] is: dose: 50.0 mg/kg/injection, schedule: Q01DX009 (ip), vehicle: saline with Tween-80.
The mark [7] stands for this setting: dose: 100.0 mg/kg/injection, schedule: Q01DX009 (ip), vehicle: saline with Tween-80.
The mark [8] stands for this setting: dose: 50.0 mg/kg/injection, schedule: Q01DX009 (ip), vehicle: Klucel (hydroxypropylcellulose) (HPC).
[9] abbreviates: dose: 100.0 mg/kg/injection, schedule: Q04DX002 (ip), vehicle: saline with Tween-80.

Take `NNC(=O)OC12CC3CC(CC(C3)C1)C2`: the T/C runs as follows: under setting [1], 105 % of control; under setting [2], 105 % of control; under setting [3], 120 % of control; (dose: 63.75 mg/kg/injection, schedule: Q01DX001 (ip), vehicle: Klucel (hydroxypropylcellulose) (HPC)) 100 % of control; (dose: 127.5 mg/kg/injection, schedule: Q01DX001 (ip), vehicle: Klucel (hydroxypropylcellulose) (HPC)) 122 % of control; (dose: 255.0 mg/kg/injection, schedule: Q04DX003 (ip), vehicle: Klucel (hydroxypropylcellulose) (HPC)) 90 % of control.
With `Cn1c2nc3ccccc3c-2nc2ccccc21`, the T/C is 94 % of control under setting [1]; 98 % of control under setting [2]; 103 % of control under setting [3]; 101 % of control under setting [4]; 116 % of control under setting [5].
Take `O=C(/C=C/c1ccc(OCc2ccccc2)cc1)c1ccc(F)cc1`: the T/C was 89 % of control under setting [6]; 98 % of control under setting [7]; 89 % of control (dose: 200.0 mg/kg/injection, schedule: Q01DX009 (ip), vehicle: saline with Tween-80).
For the compound `CC(C)CCCC(C)C1CCC2C3CC=C4CC([Se][As](C)C)CCC4(C)C3CCC12C` (stereo unspecified), the T/C under setting [6] is 118 % of control and the T/C under setting [7] is 111 % of control.
Consider `CSc1ccc(N=C=C(c2ccccc2)c2ccccc2)cc1`, for which the T/C is, setting by setting: (dose: 6.25 mg/kg/injection, schedule: Q01DX009 (ip), vehicle: saline with Tween-80) 95 % of control; (dose: 12.5 mg/kg/injection, schedule: Q01DX009 (ip), vehicle: saline with Tween-80) 90 % of control; (dose: 25.0 mg/kg/injection, schedule: Q01DX009 (ip), vehicle: saline with Tween-80) 90 % of control.
Take `Cc1cc(C)c(-c2c(C)cc(C)c(C(=O)c3ccc([N+](=O)[O-])cc3)c2C)c(C)c1C(=O)c1ccc([N+](=O)[O-])cc1`: the T/C (dose: 3.0 mg/kg/injection, schedule: Q01DX009 (ip), vehicle: Klucel (hydroxypropylcellulose) (HPC)) is 100 % of control; the T/C (dose: 6.0 mg/kg/injection, schedule: Q01DX009 (ip), vehicle: Klucel (hydroxypropylcellulose) (HPC)) was 100 % of control; the T/C (dose: 12.0 mg/kg/injection, schedule: Q01DX009 (ip), vehicle: Klucel (hydroxypropylcellulose) (HPC)) is 95 % of control; the T/C under setting [8] was 92 % of control; the T/C under setting [4] was 95 % of control; the T/C under setting [5] was 100 % of control. Also, the T/C (dose: 400.0 mg/kg/injection, schedule: Q04DX003 (ip), vehicle: Klucel (hydroxypropylcellulose) (HPC)) was 100 % of control.
Turning to `O=P1(NCCCl)OCCCN1CCCl` (stereo unspecified), the T/C (dose: 0.8 mg/kg/injection, schedule: Q01DX010 (ip), vehicle: saline) was 105 % of control; the T/C (dose: 1.5 mg/kg/injection, schedule: Q01DX010 (ip), vehicle: saline) is 100 % of control; the T/C (dose: 3.0 mg/kg/injection, schedule: Q01DX010 (ip), vehicle: saline) was 110 % of control; the T/C (dose: 3.12 mg/kg/injection, schedule: Q01DX009 (ip), vehicle: saline) was 99 % of control; the T/C (dose: 6.0 mg/kg/injection, schedule: Q01DX010 (ip), vehicle: saline) was 110 % of control; the T/C (dose: 6.25 mg/kg/injection, schedule: Q01DX009 (ip), vehicle: saline) was 107 % of control and 115 % of control. For the same compound, the T/C is 173 % of control (dose: 12.5 mg/kg/injection, schedule: Q01DX009 (ip), vehicle: saline); 177 % of control (dose: 12.5 mg/kg/injection, schedule: Q01DX010 (ip), vehicle: saline); 166 % of control and 196 % of control (dose: 25.0 mg/kg/injection, schedule: Q01DX009 (ip), vehicle: saline); 156 % of control (dose: 25.0 mg/kg/injection, schedule: Q01DX009 (ip), vehicle: water); 216 % of control (dose: 25.0 mg/kg/injection, schedule: Q01DX010 (ip), vehicle: saline); 121 % of control (dose: 50.0 mg/kg/injection, schedule: Q01DX009 (ip), vehicle: saline). Moreover, the T/C was 241 % of control (dose: 50.0 mg/kg/injection, schedule: Q01DX009 (ip), vehicle: water); 200 % of control (dose: 50.0 mg/kg/injection, schedule: Q01DX010 (ip), vehicle: saline); 105 % of control (dose: 100.0 mg/kg/injection, schedule: Q01DX009 (ip), vehicle: saline); 300 % of control (dose: 100.0 mg/kg/injection, schedule: Q01DX010 (ip), vehicle: saline); 87 % of control (dose: 200.0 mg/kg/injection, schedule: Q01DX009 (ip), vehicle: saline); 98 % of control (dose: 200.0 mg/kg/injection, schedule: Q01DX009 (ip), vehicle: water). Also, the T/C (dose: 200.0 mg/kg/injection, schedule: Q01DX010 (ip), vehicle: saline) was 105 % of control.
Turning to `CSc1nc(Cl)cc2c1ncn2C1OC(CO)C(O)C1O` (stereo unspecified), the T/C is 105 % of control (dose: 12.5 mg/kg/injection, schedule: Q04DX003 (ip), vehicle: saline); 102 % of control (dose: 25.0 mg/kg/injection, schedule: Q04DX003 (ip), vehicle: saline); 102 % of control (dose: 50.0 mg/kg/injection, schedule: Q04DX003 (ip), vehicle: saline); 112 % of control (dose: 100.0 mg/kg/injection, schedule: Q04DX003 (ip), vehicle: saline); 110 % of control (dose: 200.0 mg/kg/injection, schedule: Q04DX003 (ip), vehicle: saline); 100 % of control (dose: 400.0 mg/kg/injection, schedule: Q04DX003 (ip), vehicle: saline).
Consider `COC(=S)Nc1ccc2c(c1)nc(-c1ccccc1)c1cc(NC(=S)OC)ccc12`, for which the T/C by setting is: under setting [9], 101 % of control; (dose: 200.0 mg/kg/injection, schedule: Q04DX002 (ip), vehicle: saline with Tween-80) 101 % of control; (dose: 400.0 mg/kg/injection, schedule: Q04DX002 (ip), vehicle: saline with Tween-80) 90 % of control.
In the case of `c1ccc2c(c1)nnn1c3ncccc3nc21`, under setting [6], the T/C was 115 % of control.
As to `CCCN1CCC2(CC1)COCc1ccccc12`, the T/C runs as follows: (dose: 50.0 mg/kg/injection, schedule: Q04DX002 (ip), vehicle: saline with Tween-80) 98 % of control; under setting [9], 91 % of control.
With `CO/N=C/c1ccc([N+](=O)[O-])s1`, the T/C is 118 % of control (dose: 12.0 mg/kg/injection, schedule: Q04DX003 (ip), vehicle: Klucel (hydroxypropylcellulose) (HPC)); 100 % of control (dose: 25.0 mg/kg/injection, schedule: Q01DX009 (ip), vehicle: Klucel (hydroxypropylcellulose) (HPC)); 113 % of control under setting [2]; 108 % of control under setting [8]; 104 % of control under setting [3]; 108 % of control (dose: 100.0 mg/kg/injection, schedule: Q01DX009 (ip), vehicle: Klucel (hydroxypropylcellulose) (HPC)).
Consider `COc1cc2cnccc2cc1O`, for which the T/C by setting is: (dose: 6.25 mg/kg/injection, schedule: Q04DX003 (ip), vehicle: water) 97 % of control; (dose: 12.5 mg/kg/injection, schedule: Q04DX003 (ip), vehicle: water) 98 % of control; (dose: 25.0 mg/kg/injection, schedule: Q04DX003 (ip), vehicle: water) 118 % of control; (dose: 50.0 mg/kg/injection, schedule: Q04DX003 (ip), vehicle: water) 95 % of control; (dose: 100.0 mg/kg/injection, schedule: Q04DX003 (ip), vehicle: water) 98 % of control.
Consider `CC(C)(C)OC(=O)NC(CCCNC(=O)OCc1ccccc1)C(=O)NC(CCCNC(=O)OCc1ccccc1)C(=O)OCc1ccccc1` (stereo unspecified), for which the T/C (dose: 50.0 mg/kg/injection, schedule: Q01DX005 (ip), vehicle: saline with Tween-80) was 91 % of control; the T/C (dose: 100.0 mg/kg/injection, schedule: Q01DX005 (ip), vehicle: saline with Tween-80) was 92 % of control; the T/C (dose: 200.0 mg/kg/injection, schedule: Q01DX005 (ip), vehicle: saline with Tween-80) is 95 % of control.

The values above are taken from PubChem BioAssay AID328 (DTP/NCI, 2004).
